The values below come from paper PMC4291348, “A Continuous Enzyme-Coupled Assay for Triphosphohydrolase Activity of HIV-1 Restriction Factor SAMHD1” (Antimicrobial Agents and Chemotherapy, 2014).

SMILES strings stand for the structures.

Assay [1] has as its target T1, SAMHD1 (residues 115 to 626) (Homo sapiens, UniProt Q9Y3Z3).
T1 construct: The catalytic domain of SAMHD1 (residues 115 to 626) was expressed and purified as previously described; made in house
In words: Continuous enzyme-coupled (Ppx1 / MDCC-PBP) real-time assay of SAMHD1 triphosphohydrolase activity. Format: biochemical. The following applies: GTP activator 0.2 mM, 25°C. Here is the method:
The steady-state kinetics of SAMHD1 were determined by a coupled-enzyme assay using Ppx1 and a fluorescent phosphate biosensor, MDCC-PBP. The reactions were set up in 20-μl volumes in 384-well low-protein-binding microplates (Corning, USA), and the time-dependent fluorescence signal was measured using a Tecan Saffire^2 multiwell plate reader (Männedorf, Switzerland). Solutions containing SAMHD1 (residues 115 to 626), Ppx1, MDCC-PBP, an activator, and an inhibitor (if present) were incubated for 5 min at 25°C before the reaction was initiated by the addition of the substrate. The final concentrations were 100 nM SAMHD1, 10 nM Ppx1, and 40 μM MDCC-PBP. Depending on the experiment, the concentration of the substrate, the activator, or the inhibitor varied while the substrate and/or the activator was held constant at 1 mM and 0.2 mM, respectively. The fluorescence intensity was recorded at 430 nm for excitation and 465 nm for emission wavelengths, with a 7-nm slit width, at 8- to 10-s time intervals over a period of 10 to 30 min. The standard curves were obtained by incubating 40 μM MDCC-PBP with different concentrations of phosphate (Pi) and measuring the fluorescence, as discussed above. The fluorescence response was linear and in the range of 0 to 20 μM Pi.
The steady-state rates were obtained from the time courses of Pi formation by linear regression of the data points in the linear phase of the reaction. Rates were divided by the SAMHD1 concentration and were plotted versus the activator, substrate, or inhibitor concentration. Apparent dissociation constants for the activator (KA) or the substrate binding (KS) and the catalytic constant (kcat) were determined by nonlinear least-squares fitting using either a hyperbolic or a Hill-function equation in the software package GraFit 7.0.3 (Erithacus Software, United Kingdom) ([22]). […] Data from the three different experiments were analyzed by a least-squares fit using the equation for competitive inhibition. The fits for the three data sets yielded invariant values for the inhibition constants (Ki), supporting a competitive mode of inhibition. All measurements were performed in triplicate in the reaction buffer.

For another assay, the system named is T2, SAMHD1.
T2 construct: The catalytic domain of SAMHD1 (residues 115 to 626) was expressed and purified as previously described; made in house
In words: IEX-HPLC assay of SAMHD1 triphosphohydrolase activity. Format: biochemical, human. The settings on record: 0.2 mM GTP activated, 1 mM dATP, three enzyme concentrations 2.5, 5, 7.5 µM. Here is the method: IEX-HPLC assay of SAMHD1 Triphosphohydrolase activity
In a typical assay 2-10 µM SAMHD1 was incubated with 0.2 mM GTP activator and 1mM dNTP as substrate in Reaction buffer, 20mM Tris-HCl, 150 mM NaCl, 5 mM MgCl2, 2 mM TCEP (pH 7.5). The reaction was allowed to proceed and samples withdrawn at timed intervals up to 5 minutes and terminated by 10 fold dilution into 18.0% acetonitrile, 25mM Tris-HCl, 1 mM EDTA pH 8.0. The nucleotide hydrolysis reactions were analysed by anion exchange HPLC using a DNA-PAC100 (4 x 50mm) column (Dionex). The column was equilibrated at 30°C at 1 mL/min in 25mM Tris-HCl, 0.5% acetonitrile pH 8.0 (Buffer A). […] Absorbance data from the column eluent was continuously monitored between 200-400nm (2 nm interval) using MD-2010 photodiode array detector (JASCO). Peak integration of the absorbance data recorded at 260 nm was used to quantify the amount of substrate and products during at each time point of the reaction. Initial rates of dNTP hydrolysis were determined from the linear part of plots of substrate against time.
Supplementary Figure S1 - HPLC traces of 0.2 mM GTP activated SAMHD1 hydrolysis of 1 mM dATP. […] Inset, kcat was determined by linear regression of Kapp over three enzyme concentrations, 2.5 µM, 5 µM and 7.5
µM. Error bars represent the SEM of three independent measurements recorded at each substrate concentration. […]

T1 sequence (Q9Y3Z3 115-626): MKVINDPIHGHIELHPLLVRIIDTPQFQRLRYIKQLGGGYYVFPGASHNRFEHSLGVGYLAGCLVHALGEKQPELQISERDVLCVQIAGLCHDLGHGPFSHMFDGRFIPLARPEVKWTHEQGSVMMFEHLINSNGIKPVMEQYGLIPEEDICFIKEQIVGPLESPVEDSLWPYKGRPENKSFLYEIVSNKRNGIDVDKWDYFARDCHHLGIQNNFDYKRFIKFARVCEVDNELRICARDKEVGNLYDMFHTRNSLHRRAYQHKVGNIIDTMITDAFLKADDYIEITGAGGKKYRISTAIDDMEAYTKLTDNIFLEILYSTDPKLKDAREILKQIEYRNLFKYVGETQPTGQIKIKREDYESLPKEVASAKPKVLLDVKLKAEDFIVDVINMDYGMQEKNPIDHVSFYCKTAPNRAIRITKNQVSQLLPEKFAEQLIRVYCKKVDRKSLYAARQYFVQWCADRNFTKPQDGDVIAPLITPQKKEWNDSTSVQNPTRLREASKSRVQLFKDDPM

On to `Nc1ncnc2c1ncn2[C@H]1C[C@H](O)[C@@H](COP(=O)(O)OP(=O)(O)OP(=O)(O)O)O1` [dATP], for which, in assay [1], the “KS, apparent dissociation constant for substrate binding” value is 42.1 ± 6.9 µM. Further, the results for the kcat (in assay [1]; in the assay on SAMHD1) were 0.94 ± 0.06 s⁻¹ and 0.99 s⁻¹, respectively.
